Experiments:
TAS2R38 (PAV) = molecular target: T1, TAS2R38 (PAV) (Homo sapiens, UniProt P59533, A49P/I296V); test: Calcium fluorescence functional assay, TAS2R38 (PAV) cell line with mouse Gα15; format: cell-based
T1 construct: expressed in transfected cells
T1 sequence (P59533 1-333 A49P/I296V): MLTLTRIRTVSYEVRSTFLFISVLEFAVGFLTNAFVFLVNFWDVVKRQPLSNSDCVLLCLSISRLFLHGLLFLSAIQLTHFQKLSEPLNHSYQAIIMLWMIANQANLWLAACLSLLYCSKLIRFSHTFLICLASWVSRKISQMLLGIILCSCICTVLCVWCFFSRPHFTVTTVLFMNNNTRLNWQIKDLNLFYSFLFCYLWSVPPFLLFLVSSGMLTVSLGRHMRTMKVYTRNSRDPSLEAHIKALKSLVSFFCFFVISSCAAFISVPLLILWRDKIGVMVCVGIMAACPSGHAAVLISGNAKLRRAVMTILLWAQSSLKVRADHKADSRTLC
Procedure: (§1) A panel of cell lines expressing eight specific bitter taste receptors, a subset of the panel of twenty-five bitter receptors described in International Patent Application Publication WO 2010/088633 (see, e.g., Example 26), was used for the purpose of these analyses. Accordingly, each cell line of the panel expressed a human bitter taste receptor and mouse Gα15 signaling protein.
(§2) Each of the Examples below utilized the following functional assay: • Day 1: Stable cell lines were seeded onto black wall/clear bottom 96-well, plates (e.g., Corning, 3904). Approximately 40K cells were added per well and incubated at 37° C., 5% CO2 overnight in cell growth media (DMEM (Sigma, D5796) supplemented with 10% Fetal Bovine Serum (Sigma, 5178), 2 mM Glutamine (Sigma, G7513)). • Day 2: Growth media was discarded and cells were incubated at 37° C., 5% CO2 for 60 minutes in 100 ul of load solution containing 1× Ca-3 dye (Molecular Devices, R8090), 1% DMSO in buffer containing 130 mM NaCl, 2 mM CaCl2, 5 mM KCl, 1.2 mM MgCl2, 10 mM HEPES and 10 mM Glucose (pH 7.0). Probenecid was not included in the load solution. • Functional assay: After dye loading, cell plates were placed in a fluorescent plate reader (e.g., FDSS6000 (Hamamatsu, Japan)) and receptor stimulation was measured by adding 50 ul of 3× concentrated ligand/agonist stock. Fluorescence was monitored continuously for 10 s before agonist addition and for 100-250 s after stimulation with agonist.
(§3) Receptor Activation is defined as follows: • % Activation=[((Maximum signal fluorescence−Minimum signal fluorescence)−(Maximum control fluorescence−Minimum control fluorescence))/(Maximum buffer fluorescence−Minimum buffer fluorescence)]*100 • Functional Response=[(Maximum signal fluorescence−Minimum signal fluorescence)−(Maximum control fluorescence−Minimum control fluorescence)] • Signal fluorescence: refers to the change in fluorescence seen with addition of ligand • Control fluorescence: refers to the change in fluorescence seen with addition of buffer (negative control) • Calcium signals from ligand and control were normalized to the basal fluorescence of the cells prior to the stimulation.
(§4) A concentration analysis was performed and EC50 values were calculated by nonlinear regression using the formula: Y=Bottom+(Top−Bottom)/(1+10^((Log EC50−X)*Hill Slope)), X=log of dose or concentration, Y=Response (increasing as X increases), Top=maximum signal, Bottom=minimum signal. EC50 (half maximal effective concentration) refers to the molar concentration of the agonist which produces 50% of the maximum possible effective response from that agonist.

TAS2R39 = molecular target: T2, TAS2R39 (Homo sapiens, UniProt P59534); test: Calcium fluorescence functional assay, TAS2R39 cell line with mouse Gα15; format: cell-based
T2 construct: expressed in transfected cells
T2 sequence (P59534 1-338): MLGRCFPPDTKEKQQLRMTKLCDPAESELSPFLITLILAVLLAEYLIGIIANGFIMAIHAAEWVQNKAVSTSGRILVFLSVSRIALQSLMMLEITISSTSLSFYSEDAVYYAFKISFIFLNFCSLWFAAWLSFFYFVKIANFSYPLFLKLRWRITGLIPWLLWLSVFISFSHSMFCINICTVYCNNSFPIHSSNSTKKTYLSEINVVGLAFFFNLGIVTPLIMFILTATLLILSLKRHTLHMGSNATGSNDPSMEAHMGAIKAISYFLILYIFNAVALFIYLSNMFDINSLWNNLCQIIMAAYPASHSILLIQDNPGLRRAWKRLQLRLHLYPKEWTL
Procedure: as §1, §2, §3, §4

TAS2R4 [1] = molecular target: T3, TAS2R4 (Homo sapiens, UniProt Q9NYW5); details: PCT/US12/61400; cited from earlier work
T3 construct: expressed in transfected cells
T3 sequence (Q9NYW5 1-299): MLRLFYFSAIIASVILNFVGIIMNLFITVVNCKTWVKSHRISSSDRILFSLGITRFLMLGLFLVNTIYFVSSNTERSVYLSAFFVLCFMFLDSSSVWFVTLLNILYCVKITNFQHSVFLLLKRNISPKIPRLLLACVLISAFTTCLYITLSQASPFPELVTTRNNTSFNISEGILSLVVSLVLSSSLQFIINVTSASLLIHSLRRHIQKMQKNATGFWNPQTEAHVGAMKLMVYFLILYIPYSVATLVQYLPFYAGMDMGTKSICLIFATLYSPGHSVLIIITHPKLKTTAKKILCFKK

TAS2R9 [2] = molecular target: T4, TAS2R9 (Homo sapiens, UniProt Q9NYW1); details: PCT/US12/61400; cited from earlier work
T4 construct: expressed in transfected cells
T4 sequence (Q9NYW1 1-312): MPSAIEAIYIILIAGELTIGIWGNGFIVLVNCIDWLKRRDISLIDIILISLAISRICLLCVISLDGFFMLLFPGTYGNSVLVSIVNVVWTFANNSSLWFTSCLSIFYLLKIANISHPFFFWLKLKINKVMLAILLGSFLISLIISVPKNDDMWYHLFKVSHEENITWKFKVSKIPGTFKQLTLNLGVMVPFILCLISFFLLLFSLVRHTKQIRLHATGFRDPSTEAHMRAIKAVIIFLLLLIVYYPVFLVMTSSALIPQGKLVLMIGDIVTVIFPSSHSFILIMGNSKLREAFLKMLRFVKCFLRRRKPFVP

TAS2R13 [3] = molecular target: T5, TAS2R13 (Homo sapiens, UniProt Q9NYV9); details: PCT/US12/61400; cited from earlier work
T5 construct: expressed in transfected cells
T5 sequence (Q9NYV9 1-303): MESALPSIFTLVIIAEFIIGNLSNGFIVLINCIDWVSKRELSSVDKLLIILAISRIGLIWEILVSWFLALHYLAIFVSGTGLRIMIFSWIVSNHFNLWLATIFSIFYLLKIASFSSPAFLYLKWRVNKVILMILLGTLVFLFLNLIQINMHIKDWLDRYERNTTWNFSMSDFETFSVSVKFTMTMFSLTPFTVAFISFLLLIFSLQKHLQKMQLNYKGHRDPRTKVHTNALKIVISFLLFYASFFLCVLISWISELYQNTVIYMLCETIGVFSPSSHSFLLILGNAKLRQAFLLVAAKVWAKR

TAS2R14 [4] = molecular target: T6, TAS2R14 (Homo sapiens, UniProt Q9NYV8); details: PCT/US12/61400; cited from earlier work
T6 construct: expressed in transfected cells
T6 sequence (Q9NYV8 1-317): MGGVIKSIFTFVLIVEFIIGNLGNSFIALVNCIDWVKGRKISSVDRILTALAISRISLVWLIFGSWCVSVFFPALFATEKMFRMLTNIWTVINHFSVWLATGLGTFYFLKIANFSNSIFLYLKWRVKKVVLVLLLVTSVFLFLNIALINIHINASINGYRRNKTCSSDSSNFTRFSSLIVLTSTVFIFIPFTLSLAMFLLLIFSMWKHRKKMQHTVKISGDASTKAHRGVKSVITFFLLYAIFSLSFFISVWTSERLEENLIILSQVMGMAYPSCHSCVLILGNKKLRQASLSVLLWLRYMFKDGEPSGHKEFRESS

TAS2R44 [5] = molecular target: T7, TAS2R44 (Homo sapiens, UniProt P59538); details: PCT/US12/61400; cited from earlier work
T7 construct: expressed in transfected cells
T7 sequence (P59538 1-309): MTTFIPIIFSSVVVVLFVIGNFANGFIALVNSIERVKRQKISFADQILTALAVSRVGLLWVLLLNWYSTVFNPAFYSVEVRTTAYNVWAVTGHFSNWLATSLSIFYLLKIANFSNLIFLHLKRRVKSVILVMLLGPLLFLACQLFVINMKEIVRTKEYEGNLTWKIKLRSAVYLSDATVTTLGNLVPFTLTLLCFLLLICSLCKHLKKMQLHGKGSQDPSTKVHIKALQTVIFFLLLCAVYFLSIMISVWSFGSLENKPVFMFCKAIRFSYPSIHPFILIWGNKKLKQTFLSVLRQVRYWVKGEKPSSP

TAS2R1 = TAS2R1 (Homo sapiens, UniProt Q9NYW7); details: PCT/US12/61400; cited from earlier work
TAS2R1, sequence (Q9NYW7 whole entry): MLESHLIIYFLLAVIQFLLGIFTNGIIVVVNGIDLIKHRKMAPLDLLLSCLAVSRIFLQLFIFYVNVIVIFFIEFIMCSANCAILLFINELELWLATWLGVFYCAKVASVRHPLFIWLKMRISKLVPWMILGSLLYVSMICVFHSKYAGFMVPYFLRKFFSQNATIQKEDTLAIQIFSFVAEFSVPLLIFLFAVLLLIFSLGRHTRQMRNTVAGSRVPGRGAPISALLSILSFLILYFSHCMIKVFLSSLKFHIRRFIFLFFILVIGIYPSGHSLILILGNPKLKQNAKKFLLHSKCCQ

TAS2R16 = TAS2R16 (Homo sapiens, UniProt Q9NYV7); details: PCT/US12/61400; cited from earlier work
TAS2R16, sequence (Q9NYV7 whole entry): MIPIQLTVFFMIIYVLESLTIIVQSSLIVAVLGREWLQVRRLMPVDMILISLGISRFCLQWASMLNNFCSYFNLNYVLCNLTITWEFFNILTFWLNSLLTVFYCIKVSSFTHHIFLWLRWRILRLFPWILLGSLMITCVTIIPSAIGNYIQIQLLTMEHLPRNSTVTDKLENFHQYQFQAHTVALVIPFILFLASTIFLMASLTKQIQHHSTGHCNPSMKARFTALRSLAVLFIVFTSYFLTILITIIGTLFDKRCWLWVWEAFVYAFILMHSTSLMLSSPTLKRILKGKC

TAS2R4 [6] = molecular target: T3, TAS2R4; test: Calcium fluorescence functional assay, TAS2R4 cell line with mouse Gα15; format: cell-based; details: 20 mM tastant; change in intracellular calcium
Procedure: as §1, §2, §3, §4

TAS2R9 [7] = molecular target: T4, TAS2R9; test: Calcium fluorescence functional assay, TAS2R9 cell line with mouse Gα15; format: cell-based; details: 20 mM tastant; change in intracellular calcium
Procedure: as §1, §2, §3, §4

TAS2R13 [8] = molecular target: T5, TAS2R13; test: Calcium fluorescence functional assay, TAS2R13 cell line with mouse Gα15; format: cell-based; details: 20 mM tastant; change in intracellular calcium
Procedure: as §1, §2, §3, §4

TAS2R14 [9] = molecular target: T6, TAS2R14; test: Calcium fluorescence functional assay, TAS2R14 cell line with mouse Gα15; format: cell-based; details: 20 mM tastant; change in intracellular calcium
Procedure: as §1, §2, §3, §4

TAS2R44 [10] = molecular target: T7, TAS2R44; test: Calcium fluorescence functional assay, TAS2R44 cell line with mouse Gα15; format: cell-based; details: 20 mM tastant; change in intracellular calcium
Procedure: as §1, §2, §3, §4

[11] = 20 mM tastant, change in intracellular calcium
[12] = approximately, increasing concentrations of tastant

SMILES	TAS2R38 (PAV) bitter receptor activity (functional response) (TAS2R38 (PAV); [11])	EC50 (TAS2R38 (PAV); [12]) [mM]	TAS2R39 bitter receptor activity (functional response) (TAS2R39; [11])	EC50 (TAS2R39; [12]) [mM]	TAS2R4 response to stimulation, previously shown (TAS2R4 [1])	TAS2R9 response to stimulation, previously shown (TAS2R9 [2])	TAS2R13 response to stimulation, previously shown (TAS2R13 [3])	TAS2R14 response to stimulation, previously shown (TAS2R14 [4])	TAS2R44 response to stimulation, previously shown (TAS2R44 [5])	TAS2R1 response to stimulation, previously shown (TAS2R1)	TAS2R16 response to stimulation, previously shown (TAS2R16)	TAS2R4 bitter receptor activity (functional response) (TAS2R4 [6])	TAS2R9 bitter receptor activity (functional response) (TAS2R9 [7])	TAS2R13 bitter receptor activity (functional response) (TAS2R13 [8])	TAS2R14 bitter receptor activity (functional response) (TAS2R14 [9])	TAS2R44 bitter receptor activity (functional response) (TAS2R44 [10])
CC1=CC(=O)NS(=O)(=O)O1 [Acesulfame K]	strongly and specifically responded	5 to 10	strongly and specifically responded	5 to 10	specifically respond	specifically respond	specifically respond	specifically respond	specifically respond	specifically respond	specifically respond					
CC(O)C(=O)[O-].[K+] (stereo not shown) [potassium lactate]												activate	activate	activate	activate	activate

Reference: patent US9927424B2, “Assays for identifying compounds that modulate bitter taste” (Chromocell Corporation, priority 2013, dated 2018)
